Values of other authors as cited in EP0983068B1, “THE USE OF 1,2,4-TRIAZOLO 1,5-c]PYRIMIDINE HETEROCYCLIC ANALOGUES FOR THE PREPARATION OF MEDICAMENTS USEFUL FOR THE TREATMENT OF CEREBROVASCULAR DISTURBANCES” (SCHERING-PLOUGH S.p.A., priority 1997, dated 1998).

Tested on: cerebral ischemia
Details: Life Sciences, 55, 61-65, 1994; Brain Research 705, 79-84, 1995

Substance: CP66713
- effect in cerebral ischemia animal models: act favourably
